Source: PMC10458514, “Structure–Activity Relationship Studies on 6-Chloro-1-phenylbenzazepines Leads to the Identification of a New Dopamine D1 Receptor Antagonist” (Molecules, 2023)
Where “and” joins values, the source holds several entries; their conditions need not be identical. Identical values can stand only once. Like-named read-outs stand apart in the source and are kept apart here.

Assays:
[1] = molecular target: T1, D1R (dopamine D1 receptor) (Homo sapiens, UniProt P21728); details: for Selectivity D5/D1: ratio of Ki D5R to Ki D1R
T1 sequence (P21728 whole entry): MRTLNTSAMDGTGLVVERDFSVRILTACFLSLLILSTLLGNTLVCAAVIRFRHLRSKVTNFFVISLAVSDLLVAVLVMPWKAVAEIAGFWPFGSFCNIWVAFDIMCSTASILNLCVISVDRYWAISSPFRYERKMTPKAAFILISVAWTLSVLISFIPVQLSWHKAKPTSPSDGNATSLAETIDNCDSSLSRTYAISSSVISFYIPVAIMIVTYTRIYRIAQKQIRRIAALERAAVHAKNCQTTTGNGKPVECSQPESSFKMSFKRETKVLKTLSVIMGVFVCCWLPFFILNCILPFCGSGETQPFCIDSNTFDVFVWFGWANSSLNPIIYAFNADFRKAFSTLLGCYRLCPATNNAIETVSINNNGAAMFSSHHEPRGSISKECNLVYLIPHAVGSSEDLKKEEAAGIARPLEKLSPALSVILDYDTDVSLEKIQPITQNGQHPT

[2] = molecular target: T2, D5R (dopamine D5 receptor) (Homo sapiens, UniProt P21918); test: biochemical; details: [3H]SCH23390 radioligand, triplicate, na = not active (<50% inhibition in a primary assay when tested at 10 µM)
T2 sequence (P21918 whole entry): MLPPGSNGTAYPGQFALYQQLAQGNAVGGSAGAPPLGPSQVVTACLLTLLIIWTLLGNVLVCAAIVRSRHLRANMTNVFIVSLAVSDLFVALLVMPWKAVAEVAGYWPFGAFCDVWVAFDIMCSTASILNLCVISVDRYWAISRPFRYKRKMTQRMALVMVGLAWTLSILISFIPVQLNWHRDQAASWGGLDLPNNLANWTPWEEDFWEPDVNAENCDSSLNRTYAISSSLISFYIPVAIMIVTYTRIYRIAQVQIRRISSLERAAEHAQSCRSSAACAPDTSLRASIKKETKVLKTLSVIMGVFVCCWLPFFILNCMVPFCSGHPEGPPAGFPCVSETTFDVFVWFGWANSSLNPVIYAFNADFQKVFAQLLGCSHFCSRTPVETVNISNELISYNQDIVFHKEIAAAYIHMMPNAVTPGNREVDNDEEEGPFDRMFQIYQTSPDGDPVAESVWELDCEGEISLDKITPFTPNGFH

[3] = molecular target: T1, D1R (dopamine D1 receptor); test: biochemical; details: [3H]SCH23390 radioligand, triplicate, na = not active (<50% inhibition in a primary assay when tested at 10 µM)
D1R [4] = molecular target: T3, D1R (Homo sapiens, UniProt P21728); test: D1R cAMP functional assay, antagonist format (Eurofins DiscoverX HitHunter); assay type: cell-based; details: antagonist mode; for Max Response, antagonist format: agonist challenge at EC80, in % (unit assumed)
T3 construct: Eurofins Discover X
T3 sequence (P21728 whole entry): as the sequence (P21728 whole entry) above
Procedure: (§1) In the agonist format, cells were first incubated with sample to induce a response. Then, the media was aspirated from the cells and replaced with 15 μL 2:1 HBSS/10 mM Hepes: cAMP XS + Ab reagent. Sample stocks were diluted to generate 4X sample in assay buffer. […] The final assay concentration used was 1%. In antagonist mode, the cells were pre-incubated with a sample followed by agonist challenge at the EC80 concentration. The media was aspirated from cells and replaced with 10 μL 2:1 HBSS/10 mM Hepes: cAMP XS + Ab reagent. […] For agonist and antagonist assays, signal detection was performed as follows. […] This was followed by incubation with 20 μL cAMP XS + EA reagent for 3 h at room temperature. The microplates were read following signal generation with a PerkinElmer Envision™ instrument for chemiluminescent signal detection.

D1R [5] = molecular target: T3, D1R; test: D1R cAMP functional assay, agonist format (Eurofins DiscoverX HitHunter); assay type: cell-based; details: agonist mode
Procedure: as §1

[6] = molecular target: T2, D5R (dopamine D5 receptor); details: read-out: Ki D5R; [3H]SCH23390 radioligand; triplicate; na = not active (<50% inhibition in a primary assay when tested at 10 µM)
D5R = details: cited from earlier work
D1R [7] = molecular target: T3, D1R; details: cited from earlier work
[8] = [3H]SCH23390 radioligand, triplicate, na = not active (<50% inhibition in a primary assay when tested at 10 µM)

Compound	Ki [3]	melting point [°C]	further results
CN1CCc2c(ccc(O)c2Cl)C(c2ccc(O)cc2)C1 (centres unmarked) [Compound 15d]	161 nM	–	Selectivity D5/D1 [1]: 2.6; Ki [2]: 413 ± 9.8 nM
CN1CCc2cc(Cl)c(O)cc2[C@H]2c3ccccc3CC[C@@H]21 [SCH 39166, reference compound]	–	–	Max Response, antagonist format (D1R [4]): 102.24
Cc1cccc(C2CN(C)CCc3c2ccc(O)c3Cl)c1 (centres unmarked) [Compound 15b, 6-chloro-3-methyl-1-(m-tolyl)-2,3,4,5-tetrahydro-1H-benzo[d]azepin-7-ol]	78 nM and 77.9 nM	142.6 to 144	Selectivity D5/D1 [1]: 2.1; Ki [2]: 165 ± 4.9 nM
CN1CCc2c(ccc(O)c2Cl)C(c2ccccc2)C1 (centres unmarked) [Compound 15a, 6-chloro-3-methyl-1-phenyl-2,3,4,5-tetrahydro-1H-benzo[d]azepin-7-ol]	30 nM and 30.1 nM	143.5 to 145.1	RC50 (EC50), agonist format (D1R [5]): No D1R agonistic activity; Max Response, agonist format (D1R [5]; in % (unit assumed)): 17.22; EC50 (D1R [5]; read-out: RC50 (EC50), agonist format): > 10000 nM; Selectivity D5/D1 [1]: 6 and 6.2; Ki [2]: 187 nM; Max Response, antagonist format (D1R [4]): 66.12; IC50 (D1R [4]; agonist challenge at EC80, read-out: RC50 (IC50), antagonist format): 130 nM
N-(9-chloro-8-hydroxy-3-methyl-5-phenyl-2,3,4,5-tetrahydro-1H-benzo[d]azepin-7-yl)methanesulfonamide [Compound 22]	–	–	Selectivity D5/D1 [1]: 1.5; Ki ([1]; read-out: Ki D1R, [3H]SCH23390 radioligand, triplicate, na = not active (<50% inhibition in a primary assay when tested at 10 µM)): 113 nM and 114 nM; Ki [6]: 166 ± 6.8 nM
Cc1cccc(C2CNCCc3c2ccc(O)c3Cl)c1 (centres unmarked) [Compound 11b, 6-chloro-1-(m-tolyl)-2,3,4,5-tetrahydro-1H-benzo[d]azepin-7-ol]	–	122.3 to 124.2	Ki D1R [1, 8]: no affinity
CN1CCc2c(cc(N)c(O)c2Cl)C(c2ccccc2)C1 (centres unmarked) [Compound 17a, 8-amino-6-chloro-3-methyl-1-phenyl-2,3,4,5-tetrahydro-1H-benzo[d]azepin-7-ol]	210 nM	137 to 138.9	Selectivity D5/D1 [1]: 1.3; Ki [2]: 270 ± 8.4 nM
C=CCN1CCc2c(ccc(OC)c2Cl)C(c2ccc(OC)cc2)C1 (centres unmarked) [Compound 12c, 3-allyl-6-chloro-7-methoxy-1-(4-methoxyphenyl)-2,3,4,5-tetrahydro-1H-benzo[d]azepine]	–	155.4 to 157.1	–
Cc1cccc(C2CN(C)CCc3c2cc(N)c(O)c3Cl)c1 (centres unmarked) [Compound 17b, 8-amino-6-chloro-3-methyl-1-(m-tolyl)-2,3,4,5-tetrahydro-1H-benzo[d]azepin-7-ol]	72 nM and 71.9 nM	134.8 to 136	Selectivity D5/D1 [1]: 2.0; Ki [2]: 146 ± 5.8 nM
CN1CCc2c(cc([N+](=O)[O-])c(O)c2Cl)C(c2ccccc2)C1 (centres unmarked) [Compound 16a, 6-chloro-3-methyl-8-nitro-1-phenyl-2,3,4,5-tetrahydro-1H-benzo[d]azepin-7-ol]	–	198.7 to 200	Ki D1R [1, 8]: no affinity
Oc1ccc(C2CNCCc3c2ccc(O)c3Cl)cc1 (centres unmarked) [Compound 11d, 6-chloro-1-(4-hydroxyphenyl)-2,3,4,5-tetrahydro-1H-benzo[d]azepin-7-ol]	–	135.8 to 136.9	Ki D1R [1, 8]: did not bind to D1R
Cc1cccc(C2CN(C)CCc3c2cc([N+](=O)[O-])c(O)c3Cl)c1 (centres unmarked) [Compound 16b, 6-chloro-3-methyl-8-nitro-1-(m-tolyl)-2,3,4,5-tetrahydro-1H-benzo[d]azepin-7-ol]	4350 nM	210.4 to 212.6	–
COc1ccc(C2CN(C)CCc3c2ccc(OC)c3Cl)cc1 (centres unmarked) [Compound 13c, 6-chloro-7-methoxy-1-(4-methoxyphenyl)-3-methyl-2,3,4,5-tetrahydro-1H-benzo[d]azepine]	–	155.4 to 157.1	–
Oc1ccc2c(c1Cl)CCNCC2c1ccccc1 (centres unmarked) [Compound 11a, 6-chloro-1-phenyl-2,3,4,5-tetrahydro-1H-benzo[d]azepin-7-ol]	–	134.6 to 135.8	Ki D1R [1, 8]: no D1R affinity; Ki [2]: 470 nM
COc1ccc2c(c1Cl)CCN(C)CC2c1cccc(C)c1 (centres unmarked) [Compound 13b, 6-chloro-7-methoxy-3-methyl-1-(m-tolyl)-2,3,4,5-tetrahydro-1H-benzo[d]azepine]	–	174.5 to 176.1	–
COc1ccc2c(c1Cl)CCNCC2c1cccc(C)c1 (centres unmarked) [Compound 10b, 6-chloro-7-methoxy-1-(m-tolyl)-2,3,4,5-tetrahydro-1H-benzo[d]azepine]	–	180.4 to 181.8	–
C=CCN1CCc2c(ccc(O)c2Cl)C(c2ccc(O)cc2)C1 (centres unmarked) [Compound 14d, 3-allyl-6-chloro-1-(4-hydroxyphenyl)-2,3,4,5-tetrahydro-1H-benzo[d]azepin-7-ol]	–	132.5 to 134.1	Ki D1R [1, 8]: no affinity
COc1ccc2c(c1Cl)CCNCC2c1ccccc1 (centres unmarked) [Compound 10a, 6-chloro-7-methoxy-1-phenyl-2,3,4,5-tetrahydro-1H-benzo[d]azepine]	–	156.4 to 158	–
COc1ccc(C2CNCCc3c2ccc(OC)c3Cl)cc1 (centres unmarked) [Compound 10c, 6-chloro-7-methoxy-1-(4-methoxyphenyl)-2,3,4,5-tetrahydro-1H-benzo[d]azepine]	–	151.3 to 152.7	–
C=CCN1CCc2c(ccc(O)c2Cl)C(c2ccccc2)C1 (centres unmarked) [Compound 14a]	102 ± 5.2 nM	–	Selectivity D5/D1 [1]: 2.9; Ki [2]: 297 ± 19.3 nM
C=CCN1CCc2c(ccc(O)c2Cl)C(c2cccc(C)c2)C1 (centres unmarked) [Compound 14b, 3-allyl-6-chloro-1-(m-tolyl)-2,3,4,5-tetrahydro-1H-benzo[d]azepin-7-ol]	281 nM	151.3 to 152.7	Selectivity D5/D1 [1]: 2.6; Ki [2]: 741 ± 12.5 nM
Cc1cccc(C2CNCCc3c2cc([N+](=O)[O-])c(O)c3Cl)c1 (centres unmarked) [Compound 24b, 6-chloro-8-nitro-1-(m-tolyl)-2,3,4,5-tetrahydro-1H-benzo[d]azepin-7-ol]	38 nM and 38.1 nM	188.9 to 191.2	Selectivity D5/D1 [1]: 2.6; Ki [2]: 97.9 ± 3.6 nM
C=CCN1CCc2c(cc(O)c(O)c2Cl)C(c2cccc(C)c2)C1 (centres unmarked) [SKF 83822]	–	–	Ki (D5R): 0.3 nM; Ki (D1R [7]): 0.2 nM
C=CCN1CCc2c(ccc(OC)c2Cl)C(c2cccc(C)c2)C1 (centres unmarked) [Compound 12b, 3-allyl-6-chloro-7-methoxy-1-(m-tolyl)-2,3,4,5-tetrahydro-1H-benzo[d]azepine]	–	172.1 to 173.8	–

Continued, in another order:

Ki [3]	melting point [°C]	Compound	further results
–	201.4 to 202.8	O=[N+]([O-])c1cc2c(c(Cl)c1O)CCNCC2c1ccccc1 (centres unmarked) [Compound 24a, 6-chloro-8-nitro-1-phenyl-2,3,4,5-tetrahydro-1H-benzo[d]azepin-7-ol]	Ki D1R [1, 8]: no affinity
2940 ± 36.2 nM	144.6 to 145.9	CC(C)C(=O)Nc1cc2c(c(Cl)c1O)CCN(C)CC2c1ccccc1 (centres unmarked) [Compound 20a, N-(9-chloro-8-hydroxy-3-methyl-5-phenyl-2,3,4,5-tetrahydro-1H-benzo[d]azepin-7-yl)isobutyramide]	–
1762 ± 17.6 nM	141 to 142.1	CN1CCc2c(cc(NC(N)=O)c(O)c2Cl)C(c2ccccc2)C1 (centres unmarked) [Compound 23a, 1-(9-chloro-8-hydroxy-3-methyl-5-phenyl-2,3,4,5-tetrahydro-1H-benzo[d]azepin-7-yl)urea]	–
4980 ± 61.3 nM	–	C=CC(=O)Nc1cc2c(c(Cl)c1O)CCN(C)CC2c1cccc(C)c1 (centres unmarked) [Compound 21b]	–
–	154.4 to 156.2	CC(=O)Nc1cc2c(c(Cl)c1O)CCN(C)CC2c1ccccc1 (centres unmarked) [Compound 18a, N-(9-chloro-8-hydroxy-3-methyl-5-phenyl-2,3,4,5-tetrahydro-1H-benzo[d]azepin-7-yl)acetamide]	–
–	184.6 to 186.1	Cc1cccc(C2CN(C)CCc3c2cc(NC(N)=O)c(O)c3Cl)c1 (centres unmarked) [Compound 23b, 1-(9-chloro-8-hydroxy-3-methyl-5-(m-tolyl)-2,3,4,5-tetrahydro-1H-benzo[d]azepin-7-yl)urea]	–
1360 ± 14 nM	151.6 to 152.8	CC(=O)Nc1cc2c(c(Cl)c1O)CCN(C)CC2c1cccc(C)c1 (centres unmarked) [Compound 18b, N-(9-chloro-8-hydroxy-3-methyl-5-(m-tolyl)-2,3,4,5-tetrahydro-1H-benzo[d]azepin-7-yl)acetamide]	–
1970 ± 41.4 nM	148.7 to 150.1	CCCC(=O)Nc1cc2c(c(Cl)c1O)CCN(C)CC2c1ccccc1 (centres unmarked) [Compound 19a, N-(9-chloro-8-hydroxy-3-methyl-5-phenyl-2,3,4,5-tetrahydro-1H-benzo[d]azepin-7-yl)butyramide]	–
634 ± 12.5 nM	156.2 to 157.9	CCCC(=O)Nc1cc2c(c(Cl)c1O)CCN(C)CC2c1cccc(C)c1 (centres unmarked) [Compound 19b, N-(9-chloro-8-hydroxy-3-methyl-5-(m-tolyl)-2,3,4,5-tetrahydro-1H-benzo[d]azepin-7-yl)butyramide]	Selectivity D5/D1 [1]: 4.7; Ki [2]: 2960 ± 29.6 nM
1500 ± 18.9 nM	161.4 to 163.1	C=CC(=O)Nc1cc2c(c(Cl)c1O)CCN(C)CC2c1ccccc1 (centres unmarked) [Compound 21a, N-(9-chloro-8-hydroxy-3-methyl-5-phenyl-2,3,4,5-tetrahydro-1H-benzo[d]azepin-7-yl)acrylamide]	–
